Data from patent US20100267561A1, “HERBICIDAL PYRIDAZINONE DERIVATIVES” (priority 2007, published 2010).
Where two headings read alike, the source gives them in different places.

Experiments:
Format in all cases: in vivo
[1] = tested on: chickweed (Stellaria media); experiment: Test B postemergence plant response; details: for Chickweed plant response rating: 8 g ai/ha, postemergence, 0-100 scale; for Plant response rating, Chickweed: Postemergence
In short: (§1)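 Following treatment of plants 2 to 18 cm high after emergence, pots were held under glass for 13 to 15 days; efficacy was then graded visually, 100 denoting complete control and a dash no test result.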

[2] = tested on: windgrass (Apera spica-venti); experiment: Test B postemergence plant response; details: for Windgrass plant response rating: postemergence, 0-100 scale; for Plant response rating, Windgrass: Postemergence
In short: as §1

[3] = tested on: winter barley (Hordeum vulgare); experiment: Test B postemergence plant response; details: for Barley plant response rating: 8 g ai/ha, postemergence, 0-100 scale; for Plant response rating, Barley: Postemergence, scale 0 to 100, 0 no effect, 100 complete control
In short: as §1

[4] = tested on: canarygrass (Phalaris minor); experiment: Test B postemergence plant response; details: for Canarygrass plant response rating: 8 g ai/ha, postemergence, 0-100 scale; for Plant response rating, Canarygrass: Postemergence
In short: as §1

[5] = tested on: barnyardgrass (Echinochloa crus-galli); experiment: Test B flooded paddy test plant response
In short: (§2)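 Paddy-water application to 2-leaf plants in pots held under 3 cm of flooding; response is a 0–100 visual control rating against controls after 13 to 15 days, and a dash marks a missing result.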

[6] = tested on: umbrella sedge (Cyperus difformis); experiment: Test B flooded paddy test plant response
In short: as §2

[7] = tested on: wheat (Triticum aestivum); experiment: Test A pre-/postemergence plant response; details: for plant injury at 31 g/ha / plant injury at 125 g/ha: Triticum aestivum, 240 h, read-out: Plant response rating, Wheat
In short: (§3)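 Scores reflect visual plant injury relative to untreated controls on a 0–100 scale, recorded approximately 10 days after simultaneous preemergence soil spraying and postemergence spraying of one- to two-leaf seedlings grown in loam–sand.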

[8] = tested on: giant foxtail (Setaria faberi); experiment: Test A pre-/postemergence plant response; details: for pest or weed control at 31 g/ha / pest or weed control at 125 g/ha: Setaria faberi, 240 h, read-out: Plant response rating, Foxtail, Giant
In short: as §3

[9] = tested on: barnyardgrass (Echinochloa crus-galli); experiment: Test A pre-/postemergence plant response; details: for pest or weed control at 31 g/ha / pest or weed control at 125 g/ha: Echinochloa crus-galli, 240 h, read-out: Plant response rating, Barnyardgrass
In short: as §3

corn (Zea mays) = experiment: Test A pre-/postemergence plant response; details: for Corn plant response rating (crop injury, 0 = no effect, 100 = complete kill) at 31 g/ha / Corn plant response rating (crop injury, 0 = no effect, 100 = complete kill) at 125 g/ha: Zea mays, 240 h
In short: as §3

[10] = tested on: large crabgrass (Digitaria sanguinalis); experiment: Test A pre-/postemergence plant response; details: for pest or weed control at 31 g/ha / pest or weed control at 125 g/ha: Digitaria sanguinalis, 240 h, read-out: Plant response rating, Crabgrass, Large
In short: as §3

[11] = tested on: pigweed (Amaranthus retroflexus); experiment: Test A pre-/postemergence plant response; details: for pest or weed control at 31 g/ha / pest or weed control at 125 g/ha: Amaranthus retroflexus, 240 h, read-out: Plant response rating, Pigweed
In short: as §3

[12] = 62 g ai/ha, scale 0 to 100, 0 no effect, 100 complete control
[13] = Flood (flooded paddy test), 62 g ai/ha, scale 0 to 100, 0 no effect, 100 complete control
[14] = Flood (flooded paddy test), 125 g ai/ha, scale 0 to 100, 0 no effect, 100 complete control
[15] = Flood (flooded paddy test), 250 g ai/ha, scale 0 to 100, 0 no effect, 100 complete control
[16] = Flood, 31 g ai/ha, scale 0 to 100
[17] = Postemergence, 31 g ai/ha, 0 to 100 scale (0 no effect, 100 complete control)
[18] = Postemergence, 125 g ai/ha, 0 to 100 scale, 0 no effect, 100 complete control
[19] = Preemergence, 31 g ai/ha, 0 to 100 scale, 0 is no effect, 100 is complete control
[20] = Preemergence, 125 g ai/ha, 0 to 100 scale (0 no effect, 100 complete control)
[21] = post-emergence, Postemergence, 31 g ai/ha, 0 to 100 scale (0 no effect, 100 complete control)
[22] = post-emergence, Postemergence, 125 g ai/ha, 0 to 100 scale, 0 no effect, 100 complete control
[23] = pre-emergence, Preemergence, 31 g ai/ha, 0 to 100 scale, 0 is no effect, 100 is complete control
[24] = pre-emergence, Preemergence, 125 g ai/ha, 0 to 100 scale (0 no effect, 100 complete control)

COCc1cc(-c2ccc(Br)cc2)nn1-c1c(O)cnn(C)c1=O [Compound 68]
90: Plant response rating, Foxtail, Giant [8, 18] | Plant response rating, Barnyardgrass [9, 20]
50: Plant response rating, Foxtail, Giant [8, 17] | Plant response rating, Corn (corn (Zea mays); [18])
100: Plant response rating, Foxtail, Giant [8, 20] | Plant response rating, Barnyardgrass [9, 18]
10: Plant response rating, Canarygrass [4, 12] | Plant response rating, Foxtail, Giant [8, 19] | Plant response rating, Barnyardgrass [9, 17] | Plant response rating, Crabgrass, Large [10, 17] | Plant response rating, Crabgrass, Large [10, 18] | Plant response rating, Crabgrass, Large [10, 20]
0: Chickweed plant response rating [1] | Plant response rating, Chickweed ([1]; 16 g ai/ha, scale 0 to 100) | Plant response rating, Chickweed ([1]; 31 g ai/ha, scale 0 to 100) | Plant response rating, Chickweed [1, 12] | Windgrass plant response rating ([2]; 8 g ai/ha) | Windgrass plant response rating ([2]; 16 g ai/ha) | Plant response rating, Windgrass ([2]; 31 g ai/ha, scale 0 to 100) | Barley plant response rating [3] | Plant response rating, Barley ([3]; 16 g ai/ha) | Plant response rating, Barley ([3]; 31 g ai/ha) | Plant response rating, Barley ([3]; 62 g ai/ha) | Canarygrass plant response rating [4] | Plant response rating, Canarygrass ([4]; 16 g ai/ha, scale 0 to 100) | Plant response rating, Canarygrass ([4]; 31 g ai/ha, scale 0 to 100) | Plant response rating, Barnyardgrass [5, 13] | Plant response rating, Barnyardgrass [5, 14] | Plant response rating, Barnyardgrass [5, 15] | Plant response rating, Barnyardgrass [5, 16] | Plant response rating, Sedge, Umbrella [6, 13] | Plant response rating, Sedge, Umbrella [6, 14] | Plant response rating, Sedge, Umbrella [6, 15] | Plant response rating, Sedge, Umbrella [6, 16] | Plant response rating, Wheat [7, 17] | Plant response rating, Wheat [7, 18] | Plant response rating, Wheat [7, 19] | Plant response rating, Barnyardgrass [9, 19] | Plant response rating, Corn (corn (Zea mays); [17]) | Plant response rating, Corn (corn (Zea mays); [19]) | Plant response rating, Corn (corn (Zea mays); [20]) | Plant response rating, Crabgrass, Large [10, 19] | Plant response rating, Pigweed [11, 17] | Plant response rating, Pigweed [11, 18] | Plant response rating, Pigweed [11, 19] | Plant response rating, Pigweed [11, 20]
35: Plant response rating, Windgrass [2, 12]

Cc1nn(C)c(=O)c(-n2nc(-c3ccc(C(F)(F)F)cc3)cc2C)c1O [Compound 75, 5-hydroxy-2,6-dimethyl-4-[5-methyl-3-[4-(trifluoromethyl)phenyl]-1H-pyrazol-1-yl]-3(2H)-pyridazinone]
20%: plant injury at 125 g/ha [7, 24] | pest or weed control at 31 g/ha [8, 23] | pest or weed control at 31 g/ha [10, 21]
15: Plant response rating, Barley ([3]; 31 g ai/ha)
90: Plant response rating, Windgrass [2, 12]
70: Plant response rating, Windgrass ([2]; 31 g ai/ha, scale 0 to 100)
90%: pest or weed control at 125 g/ha [9, 22] | Corn plant response rating (crop injury, 0 = no effect, 100 = complete kill) at 125 g/ha (corn (Zea mays); [22])
10: Windgrass plant response rating ([2]; 8 g ai/ha)
10%: plant injury at 31 g/ha [7, 21] | pest or weed control at 31 g/ha [9, 21]
0: Chickweed plant response rating [1] | Plant response rating, Chickweed ([1]; 16 g ai/ha, scale 0 to 100) | Plant response rating, Chickweed ([1]; 31 g ai/ha, scale 0 to 100) | Plant response rating, Chickweed [1, 12] | Barley plant response rating [3] | Plant response rating, Barley ([3]; 16 g ai/ha) | Canarygrass plant response rating [4] | Plant response rating, Canarygrass ([4]; 16 g ai/ha, scale 0 to 100) | Plant response rating, Canarygrass ([4]; 31 g ai/ha, scale 0 to 100)
50%: pest or weed control at 31 g/ha [8, 21]
60: Plant response rating, Barley ([3]; 62 g ai/ha)
0%: pest or weed control at 62 g/ha ([5]; Echinochloa crus-galli, Flood (flooded paddy test), 62 g ai/ha, scale 0 to 100, 0 no effect, 100 complete control, read-out: Plant response rating, Barnyardgrass) | pest or weed control at 250 g/ha ([5]; Echinochloa crus-galli, Flood (flooded paddy test), 250 g ai/ha, scale 0 to 100, 0 no effect, 100 complete control, read-out: Plant response rating, Barnyardgrass) | pest or weed control at 62 g/ha ([6]; Cyperus difformis, Flood (flooded paddy test), 62 g ai/ha, scale 0 to 100, 0 no effect, 100 complete control, read-out: Plant response rating, Sedge, Umbrella) | pest or weed control at 250 g/ha ([6]; Cyperus difformis, Flood (flooded paddy test), 250 g ai/ha, scale 0 to 100, 0 no effect, 100 complete control, read-out: Plant response rating, Sedge, Umbrella) | plant injury at 31 g/ha [7, 23] | pest or weed control at 31 g/ha [9, 23] | Corn plant response rating (crop injury, 0 = no effect, 100 = complete kill) at 31 g/ha (corn (Zea mays); [21]) | Corn plant response rating (crop injury, 0 = no effect, 100 = complete kill) at 31 g/ha (corn (Zea mays); [23]) | Corn plant response rating (crop injury, 0 = no effect, 100 = complete kill) at 125 g/ha (corn (Zea mays); [24]) | pest or weed control at 31 g/ha [10, 23] | pest or weed control at 31 g/ha [11, 21] | pest or weed control at 125 g/ha [11, 22] | pest or weed control at 31 g/ha [11, 23] | pest or weed control at 125 g/ha [11, 24]
70%: plant injury at 125 g/ha [7, 22]
40%: pest or weed control at 125 g/ha [10, 24]
50: Windgrass plant response rating ([2]; 16 g ai/ha) | Plant response rating, Canarygrass [4, 12]
80%: pest or weed control at 125 g/ha [8, 22] | pest or weed control at 125 g/ha [8, 24] | pest or weed control at 125 g/ha [9, 24] | pest or weed control at 125 g/ha [10, 22]
